In PMC9841532, “Exploring the Effect of Halogenation in a Series of Potent and Selective A2B Adenosine Receptor Antagonists” (Journal of Medicinal Chemistry, 2022):
Read-outs that look alike come from different tables or passages of the source.

How the values were obtained:
[1] = target: T1, hA1AR (Homo sapiens, UniProt P30542); test: Radioligand binding competition, [3H]DPCPX, membranes from CHO-A1 cells; conditions: 1 μM, [3H]DPCPX, human CHO cells, n = 2
T1 sequence (P30542 1-326): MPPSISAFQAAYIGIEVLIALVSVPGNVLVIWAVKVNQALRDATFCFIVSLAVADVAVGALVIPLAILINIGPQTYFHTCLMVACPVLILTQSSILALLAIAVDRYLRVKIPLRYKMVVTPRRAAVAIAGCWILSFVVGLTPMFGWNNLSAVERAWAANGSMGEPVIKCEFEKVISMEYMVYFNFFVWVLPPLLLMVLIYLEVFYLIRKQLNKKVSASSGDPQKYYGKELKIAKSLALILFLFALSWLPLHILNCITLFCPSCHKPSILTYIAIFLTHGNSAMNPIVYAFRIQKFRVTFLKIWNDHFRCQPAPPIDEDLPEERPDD
Procedure, shortened: (§1)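 Racemates, plus selected enantiomers after chiral resolution, were tested at 25 °C, with a 60 min incubation for one subtype and 30 min for others. Non-specific binding was defined with 10 μM or 100 μM R-PIA. Bound radioactivity was counted after washing and filtration.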

[2] = target: T2, hA2AAR (Homo sapiens, UniProt P29274); test: Radioligand binding competition, [3H]ZM241385, membranes from HeLa-A2A cells; conditions: for % at 1 μM hA2A (percentage displacement of specific binding): [3H]ZM241385, human HeLa cells, n = 2
T2 construct: expressed in transfected cells; host or cells: HeLa (HeLa-A2A) cell membranes
T2 sequence (P29274 whole entry): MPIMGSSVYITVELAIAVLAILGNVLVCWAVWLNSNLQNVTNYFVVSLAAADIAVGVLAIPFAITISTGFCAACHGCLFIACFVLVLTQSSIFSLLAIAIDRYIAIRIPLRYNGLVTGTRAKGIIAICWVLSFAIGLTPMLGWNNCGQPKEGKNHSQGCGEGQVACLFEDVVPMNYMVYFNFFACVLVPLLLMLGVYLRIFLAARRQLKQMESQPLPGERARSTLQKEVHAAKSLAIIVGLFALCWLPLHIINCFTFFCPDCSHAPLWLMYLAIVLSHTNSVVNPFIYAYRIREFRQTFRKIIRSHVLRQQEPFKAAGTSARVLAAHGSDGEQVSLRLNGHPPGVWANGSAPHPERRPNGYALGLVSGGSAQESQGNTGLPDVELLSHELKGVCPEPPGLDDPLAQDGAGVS
Procedure, shortened: as §1

[3] = target: T3, hA2BAR (Homo sapiens, UniProt P29275); test: Radioligand binding competition, [3H]DPCPX, membranes from HEK-293-A2B cells; conditions: for Ki: read-out: Ki hA2B; for % at 1 μM hA2B (percentage displacement of specific binding): [3H]DPCPX, human HEK-293 cells, n = 2
T3 construct: host or cells: HEK-293 (HEK-293-A2B) cell membranes
T3 sequence (P29275 1-332): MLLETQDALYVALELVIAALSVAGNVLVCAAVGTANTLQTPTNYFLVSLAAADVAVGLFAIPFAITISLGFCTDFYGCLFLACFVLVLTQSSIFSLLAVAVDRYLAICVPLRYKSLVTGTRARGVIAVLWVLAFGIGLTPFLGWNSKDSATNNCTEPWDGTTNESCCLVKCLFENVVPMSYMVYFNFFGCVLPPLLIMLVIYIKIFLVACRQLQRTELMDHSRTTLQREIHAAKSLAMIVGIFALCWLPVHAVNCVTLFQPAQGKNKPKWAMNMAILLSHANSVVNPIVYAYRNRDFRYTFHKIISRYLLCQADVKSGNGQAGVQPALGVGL
Procedure, shortened: as §1

[4] = target: T4, hA3AR (Homo sapiens, UniProt P0DMS8); test: Radioligand binding competition, [3H]NECA, membranes from HeLa-A3 cells; conditions: 1 μM, [3H]NECA, human HeLa cells, n = 2
T4 construct: expressed in transfected cells; host or cells: HeLa (HeLa-A3) cell membranes
T4 sequence (P0DMS8 1-318): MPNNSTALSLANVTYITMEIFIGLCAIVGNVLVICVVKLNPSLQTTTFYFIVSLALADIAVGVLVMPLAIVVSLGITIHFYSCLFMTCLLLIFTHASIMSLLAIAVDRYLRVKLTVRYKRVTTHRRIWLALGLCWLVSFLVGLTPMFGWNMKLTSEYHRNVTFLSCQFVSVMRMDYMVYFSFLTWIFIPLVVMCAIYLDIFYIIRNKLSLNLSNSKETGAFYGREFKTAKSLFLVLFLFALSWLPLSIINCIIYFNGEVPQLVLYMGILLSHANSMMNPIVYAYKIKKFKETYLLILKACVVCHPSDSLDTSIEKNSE
Procedure, shortened: as §1

[5] = target: A2B; conditions: cited from earlier work
[6] = Human microsomal stability; assay type: in vitro ADME; conditions: human, human microsomes, pH 7.4; read-out: microsomal stability t1/2
Experimental: The human microsomal stability of selected compounds was evaluated by following a previously described method.[31] The human microsomes employed were purchased from Tebu-Xenotech. The compound was incubated with the microsomes at 37 °C in a 50 mM phosphate buffer (pH = 7.4) containing 3 mM MgCl2, 1 mM NADP, 10 mM glucose-6-phosphate, and 1 U/mL glucose-6-phosphate-dehydrogenase. Samples (75 μL) were taken from each well at 0, 10, 20, 40, and 60 min and transferred to a plate containing 4 °C 75 μL acetonitrile and 30 μL of 0.5% formic acid in water was added for improving the chromatographic conditions. The plate was centrifuged (46,000 g, 30 min), and supernatants were taken and analyzed in a UPLC-MS/MS (Xevo TQD, Waters) by employing a BEH C18 column and an isocratic gradient of 0.1% formic acid in water:0.1% formic acid acetonitrile (60:40). The metabolic stability of the compounds was calculated from the logarithm of the remaining compounds at each of the time point studied.

[7] = displacement of specific [3H]DPCPX binding in human HEK-293 cells, n = 3
[8] = Figure 1, representative A2B antagonists ref 28-32, read-out: Ki

| Molecule | % at 1 μM hA1 (percentage displacement of specific binding) [1] | % at 1 μM hA3 (percentage displacement of specific binding) [4] | % at 1 μM hA2A (percentage displacement of specific binding) [2] | Ki [5, 8] | further results |
| --- | --- | --- | --- | --- | --- |
| CC1=C(C(=O)OC(C)C)[C@@H](c2ccoc2)n2c(nc3cc(Cl)ccc32)N1 [(R)-16l] | 37% | 24% | – | – | Ki ([2]; displacement of specific [3H]ZM241385 binding in human HeLa cells, n = 3, read-out: Ki hA2A): 96.3 ± 6 nM; Ki [3, 7]: 2.6 ± 0.3 nM |
| CC1=C(C(=O)OC(C)C)[C@H](c2ccco2)n2c(nc3cc(Br)ccc32)N1 [(R)-16r] | 12% | 2% | 7% | – | % at 1 μM hA2B (percentage displacement of specific binding) [3]: 35% |
| CCOC(=O)C1=C(C)Nc2nc3cc(Cl)ccc3n2[C@H]1c1cocn1 [(R)-18c] | 9% | 15% | 32% | – | % at 1 μM hA2B (percentage displacement of specific binding) [3]: 26% |
| CC1=C(C(=O)OC(C)C)[C@@H](c2ccco2)n2c(nc3cc(Cl)ccc32)N1 [(S)-16j] | 48% | 6% | 19% | – | Ki [3, 7]: 2.04 ± 0.2 nM |
| CC1=C(C(=O)OC(C)C)[C@H](c2ccoc2)n2c(nc3cc(Cl)ccc32)N1 [(S)-16l] | 24% | 19% | 25% | – | % at 1 μM hA2B (percentage displacement of specific binding) [3]: 53% |
| CCOC(=O)C1=C(C)Nc2nc3cc(Br)ccc3n2[C@H]1c1ccoc1 [(S)-16s] | 11% | 10% | 16% | – | % at 1 μM hA2B (percentage displacement of specific binding) [3]: 34% |
| CCOC(=O)C1=C(C)Nc2nc3cc(Cl)ccc3n2[C@@H]1c1cocn1 [(S)-18c] | 22% | 6% | 17% | – | Ki [3, 7]: 3.39 ± 0.2 nM |
| CC1=C(C(=O)OC(C)C)[C@@H](c2ccco2)n2c(nc3ccccc32)N1 [(S)-ISAM-140] | 2% | 4% | 12% | – | Ki hA2B [3, 7]: sub-nanomolar; Ki [3, 7]: 0.89 ± 0.2 nM |
| CCCn1c(=O)c2[nH]c(-c3cnn(Cc4cccc(C(F)(F)F)c4)c3)nc2n(CCC)c1=O [CVT-7124] | – | – | – | 6 nM | – |
| CCOC(=O)C1=C(C)Nc2nc3ccccc3n2C1c1cocn1 (centres unmarked) [IX] | – | – | – | 8.1 nM | – |
| c1cncc(Nc2ncc(-c3ccncn3)c(-c3ccco3)n2)c1 [LAS38096, 4′-(2-Furyl)-N-Pyridin-3-Yl-4,5‘-Bipyrimidin-2‘-Amine] | – | – | – | 17 nM | – |
| CCCn1c(=O)[nH]c2nc(-c3ccc(S(=O)(=O)N4CCN(c5ccc(Br)cc5)CC4)cc3)[nH]c2c1=O [PSB-1901] | – | – | – | 0.083 nM | – |
| CC1=C(C(=O)OC(C)C)C(c2ccco2)NC(=S)N1 (centres unmarked) [SYAF030] | – | – | – | 10.2 nM | – |
| O=c1c(-c2ccccc2)nnc2n(-c3ccccc3)c3ccc(Cl)cc3n12 [compound 5] | – | – | – | 1.4 nM | – |
| C[C@]12CC[C@H]3[C@@H](CCC4=CC(=O)CC[C@@]43C)[C@@H]1CC[C@@H]2O [testosterone, reference compound] | – | – | – | – | half-life at 1 h [6]: 16.1 min |
| PSB-603 | – | – | – | – | Ki ([5]; Table 8 ref 28, read-out: hA2B Ki): 0.553 nM |
